Data published in paper PMC9381536, “Non-apoptotic cell death induction via sapogenin based supramolecular particles” (Scientific Reports, 2022).

Legend:
A549 = test: Cytotoxicity analysis (WST-1); type: cell-based; details: Homo sapiens, A549, 48 h
Procedure: (§1) HCC1937 (Human breast cancer line), HeLa (Human […]), A549 (Human lung adenocarcinoma), MRC-5 (Human lung fibroblasts), MCF7 (Human breast cancer cells), A549 (human lung carcinoma) were obtained from American Type Culture Collection and maintained as exponentially growing monolayers by culturing according to the supplier’s instructions. MCF7, HeLa, MRC-5, and A549 cell lines were cultured and routinely passaged in DMEM media containing 10% FBS, while HCC1937 cell lines were propagated in RPMI 1640 containing 10% FBS.
(§2) Following the treatment with compounds or vehicle for 48 h, the 10% WST-1 (Roche, Switzerland) in medium was replaced in each 96 well. After 4 h incubation with WST-1 reagent at 37 °C and 5% CO2, the absorbance was measured using a microplate reader at 440 nm (Varioscan, Thermo Fisher Scientific, US). Graph Pad Prism 5 (San Diego, CA, US.) was used to calculate the IC50, which represents the concentration of compounds that is required for 50% inhibition in comparison to the vehicle-treated controls. The experiments were repeated three times independently.

HCC1937 = test: Cytotoxicity analysis (WST-1); type: cell-based; details: Homo sapiens, HCC1937, 48 h
Procedure: as §1, §2

HeLa = test: Cytotoxicity analysis (WST-1); type: cell-based; details: Homo sapiens, 48 h
Procedure: as §1, §2

MCF7 = test: Cytotoxicity analysis (WST-1); type: cell-based; details: Homo sapiens, MCF7, 48 h
Procedure: as §1, §2

MRC-5 = test: Cytotoxicity analysis (WST-1); type: cell-based; details: Homo sapiens, MRC5, MRC-5 normal cell line, 48 h
Procedure: as §1, §2

[1] = test system: HeLa, HCC1937, MCF7, A549 and MRC-5; test: cells; type: cell-based, Human
From the text: We next aimed to further characterize the relation between the chemical structure of AG-08 and its capacity of supramolecular assembly formation together with its biological activities by preparing further derivatives. In this regard, 18 analogs (Fig. 4) were synthesized from 20(27)-octanor-cycloastragenol (SCG), cycloastragenol (CG), and astragenol (AG) by the methods shown in the method section. The details and characterization of which are shown in Supplementary Information. The cytotoxic activities of the semi-synthetic analogs were evaluated against four human cancer cell lines, namely HeLa, HCC1937, MCF7, and A549 as well as against MRC-5 as a normal cell line.
as §1, §2

HCC1937 cells [2] = test: Endocytosis/vesicular trafficking inhibitors against AG-08-mediated cell death; type: cell-based, Human; details: 1 h pre-treatment, then 8 µM AG-08 24 h, HCC1937, WST-1
Procedure: Figure 2 AG-08 is related with endosomal pathway. (A) After pre-treatment with 20 µM pitstop II, 0.5 mM methyl-β-cyclodextrin (MβC), 80 µM dynasore, 20 µM cytochalasin d (Cyto D) or 20 µM chlorpromazine (CPZ) for 1 h, HCC1937 cells were treated with 8 µM AG-08 for 24 h. Then cell viability was determined by using WST-1. Reported values were normalized on cells treated with only AG-08. Error bars are the standard deviations (n = 3). p-values were calculated with respect to AG-08 treated cells by two-tailed equal variance Student’s t-test (*p < 0.05, ***p < 0.001, ****p < 0.0001) (B) HCC1937 cells were treated with brefeldin A (Bref A) for 1 h and then treated with 8 µM AG-08 for 24 h. Error bars represent standard deviations (n = 3). p-values were calculated with respect to AG-08-treated cells (*p < 0.05, **p < 0.005, ***p < 0.001). (C) Following AG-08 treatment for 16 h, EEA1 proteins were stained using the anti-EEA1 antibody in HCC1937 cells (scale bar = 25 µm).
Pitstop II (Sigma; SML1169), methyl β cyclodextrin (Cayman; 21,633), chlorpromazine (Cayman; 16,129), dynasore (Cayman, 14,062) and cytochalasin D (Cayman; 11,330) were used as endocytosis inhibitors.

HCC1937 cells [3] = test: Cytotoxicity of 220 nm filtrates; type: cell-based; details: HCC1937, 24 h
Procedure: Figure 1 AG-08 mediated cytotoxicity relies on the supramolecular structures. (A) Structure of AG-08. (B) The scanning transmission electron micrograph of 16 µM AG-08 in PBS. Figure is a representative image of stained sample with uranyl acetate (5683 × magnification; scale bar 600 nm). (C) After 3 h incubation of Nile red solution with AG-08 or AG, fluorescence intensity of Nile red was measured. (D) AG-08, Staurosporine (Sta) or vehicle samples prepared in the cell condition medium was filtrated by 220 nm filter and HCC1937 cells were exposed to the filtrates. After 24 h, the viability of cells was measured and represented as a percentage of that of the vehicle control. The error bars represent mean value ± s.d. (n = 3). *p < 0.05, **p < 0.005, ***p < 0.001. (E) Tween 20 (1:40,000) was added to the fresh medium before addition of 8 μM AG-08 or vehicle. Then cell medium was replaced with this fresh medium. Cell viability was detected after 24 h incubation. […] TEXT PRINTED IN THE PICTURE: (F) no label printed: Diameter: 153.2±4.6; polydispersity index: 0.218
To verify that the activity of AG-08 arises from its supramolecular structures, freshly prepared AG-08 solutions were filtered using 220 nm-filters to remove AG-08 supramolecular particles from medium, and the filtrates were analyzed for their cytotoxicity. […] Next, Tween-20 was utilized as a non-ionic detergent to block particle formation, and AG-08-mediated cell death was inhibited as expected (Fig. 1E). […]

Compound	IC50 (A549)	IC50 (HCC1937)	IC50 (HeLa)	IC50 (MCF7)	IC50 (MRC-5)	cytotoxic activity (structure-activity statement) [1]	protection of cells against AG-08-mediated cell death (HCC1937 cells [2])	cytotoxicity of filtrate after 220 nm filtration (HCC1937 cells [3])
CC(C)(O)C1CCC(C)(C2C(O)CC3(C)C4CC(=O)C5C(C)(CCC(O)C5(C)C)C4=CCC23C)O1 (stereo not drawn) [AG-01]	> 30 µM	> 30 µM	> 30 µM	> 30 µM	> 30 µM	–	–	–
CC(C)(O)C1CCC(C)(C2C(O)CC3(C)C4CC(O)C5C(C)(C)C=CCC5(C)C4=CCC23C)O1 (stereo not drawn) [AG-02]	30.5 µM	46.1 µM	42.6 µM	32.1 µM	39.9 µM	did not exhibit antiproliferative effect	–	–
CC(C)(O)C1CCC(C)(C2C(O)CC3(C)C4C=CC5C(C)(CCC(O)C5(C)C)C4=CCC23C)O1 (stereo not drawn) [AG-03]	25.5 µM	20.3 µM	33.4 µM	21.8 µM	24.4 µM	–	–	–
CC(C)(O)C1CCC(C)(C2C(O)CC3(C)C4C=CC5C(C)(CCC(OS(C)(=O)=O)C5(C)C)C4=CCC23C)O1 (stereo not drawn) [AG-04]	27.5 µM	> 50 µM	> 50 µM	22.1 µM	29.6 µM	the activity was lost	–	–
CN(C)c1cccc2c(S(=O)(=O)OC3CCC4(C)C5=CCC6(C)C(C7(C)CCC(C(C)(C)O)O7)C(O)CC6(C)C5C=CC4C3(C)C)cccc12 (stereo not drawn) [AG-07]	38.2 µM	38.3 µM	34.7 µM	–	7.4 µM	loss of activity	–	–
C[C@H]1CCC/C=C/[C@@H]2C[C@H](O)C[C@H]2[C@H](O)/C=C/C(=O)O1 [Brefeldin A]	–	–	–	–	–	–	reduced AG-08 dependent cell death	–
CC(C)(O)C1CCC(C)(C2C(O)CC3(C)C4CC(O)C5C(C)(C)C(O)CCC56CC46CCC23C)O1 (stereo not drawn) [CG, cycloastragenol, reference compound]	> 50 µM	> 50 µM	> 50 µM	> 50 µM	> 50 µM	–	–	–
CC(C)(O)C1CCC(C)(C2C(O)CC3(C)C4CC(=O)C5C(C)(C)C(O)CCC56CC46CCC23C)O1 (stereo not drawn) [CG-01]	> 30 µM	> 30 µM	> 30 µM	> 30 µM	> 30 µM	–	–	–
CC(C)(O)C1CCC(C)(C2C(O)CC3(C)C4C=CC5C(C)(C)C(O)CCC56CC46CCC23C)O1 (stereo not drawn) [CG-02]	21.1 µM	32.5 µM	43.9 µM	21.2 µM	33.4 µM	did not exhibit antiproliferative effect	–	–
CC(C)(O)C1CCC(C)(C2C(O)CC3(C)C4C=CC5C(C)(C)C(OS(C)(=O)=O)CCC56CC46CCC23C)O1 (stereo not drawn) [CG-04]	> 50 µM	> 50 µM	> 50 µM	> 50 µM	> 50 µM	the activity was lost	–	–
CC1(C)C(O)CCC23CC24CCC2(C)CC(O)CC2(C)C4CC(O)C13 (stereo not drawn) [SCG, 20(27)-octanor-cycloastragenol, reference compound]	> 50 µM	> 50 µM	> 50 µM	> 50 µM	> 50 µM	–	–	–
Cc1ccc(S(=O)(=O)OC2CC3(C)CCC45CC46CCC(O)C(C)(C)C6C(O)CC5C3(C)C2)cc1 (stereo not drawn) [SCG-01]	> 50 µM	> 50 µM	> 50 µM	> 50 µM	> 50 µM	–	–	–
CC1(C)C(O)CCC23CC24CCC2(C)CC(O)CC2(C)C4C=CC13 (stereo not drawn) [SCG-02]	> 50 µM	> 50 µM	> 50 µM	> 50 µM	> 50 µM	–	–	–
Cc1ccc(S(=O)(=O)OC2CC3C4(C)CC(O)CC4(C)CCC34CC43CC=CC(C)(C)C23)cc1 (stereo not drawn) [SCG-03]	> 50 µM	> 50 µM	> 50 µM	> 50 µM	> 50 µM	–	–	–
Cc1ccc(S(=O)(=O)OC2CC3(C)CCC45CC46CCC(OS(=O)(=O)c4ccc(C)cc4)C(C)(C)C6C=CC5C3(C)C2)cc1 (stereo not drawn) [SCG-04]	> 50 µM	> 50 µM	> 50 µM	> 50 µM	> 50 µM	–	–	–
Cc1ccc(S(=O)(=O)OC2CC3(C)CCC45CC46CCC(O)C(C)(C)C6C=CC5C3(C)C2)cc1 (stereo not drawn) [SCG-05]	> 50 µM	> 50 µM	> 50 µM	> 50 µM	> 50 µM	–	–	–
CC1(C)C(OS(C)(=O)=O)CCC23CC24CCC2(C)CC(OS(C)(=O)=O)CC2(C)C4C=CC13 (stereo not drawn) [SCG-06]	> 50 µM	> 50 µM	> 50 µM	> 50 µM	> 50 µM	–	–	–
CC1(C)C(O)CCC23CC24CCC2(C)CC(OS(C)(=O)=O)CC2(C)C4CC(O)C13 (stereo not drawn) [SCG-07]	> 50 µM	> 50 µM	> 50 µM	> 50 µM	> 50 µM	–	–	–
CN(C)CCCN1c2ccccc2Sc2ccc(Cl)cc21 [chlorpromazine]	–	–	–	–	–	–	failed to rescue cells	–
C=C1[C@@H](C)[C@H]2[C@H](Cc3ccccc3)NC(=O)[C@]23[C@H](OC(C)=O)/C=C/[C@@](C)(O)C(=O)[C@@H](C)C/C=C/[C@H]3[C@@H]1O [cytochalasin D]	–	–	–	–	–	–	failed to rescue cells	–
O=C(N/N=C/c1ccc(O)c(O)c1)c1cc2ccccc2cc1O [dynasore]	–	–	–	–	–	–	failed to rescue cells	–
O=C1N=C(NS(=O)(=O)c2cccc3ccccc23)SC1=Cc1ccc(Br)cc1 [pitstop II]	–	–	–	–	–	–	effectively protected cells	–
CN[C@@H]1C[C@H]2O[C@@](C)([C@@H]1OC)n1c3ccccc3c3c4c(c5c6ccccc6n2c5c31)C(=O)NC4 [staurosporine, reference compound]	–	–	–	–	–	–	–	still effectively caused cell death
methyl β-cyclodextrin	–	–	–	–	–	–	effectively protected cells	–
